Experimental data: patent publication US7557110B2, “Pyrazolo[1,5-A] pyrimidine derivatives” (Teijin Pharma Limited, priority 2003, dated 2009)
Read-outs that look alike come from different tables or passages of the source.

Columns and labels:
MAPKAP-K2 = MAPKAP-K2 (Homo sapiens, UniProt P49137); experiment: MAPKAP-K2 enzyme activity inhibition (33P-ATP filter plate kinase assay); type: biochemical; conditions: MAPKAP-K2 inhibitory activity; assays conducted at typically 1-100 μM; further: key: +: active; ++: more active; +++: very active
Sequence of MAPKAP-K2 (P49137 whole entry): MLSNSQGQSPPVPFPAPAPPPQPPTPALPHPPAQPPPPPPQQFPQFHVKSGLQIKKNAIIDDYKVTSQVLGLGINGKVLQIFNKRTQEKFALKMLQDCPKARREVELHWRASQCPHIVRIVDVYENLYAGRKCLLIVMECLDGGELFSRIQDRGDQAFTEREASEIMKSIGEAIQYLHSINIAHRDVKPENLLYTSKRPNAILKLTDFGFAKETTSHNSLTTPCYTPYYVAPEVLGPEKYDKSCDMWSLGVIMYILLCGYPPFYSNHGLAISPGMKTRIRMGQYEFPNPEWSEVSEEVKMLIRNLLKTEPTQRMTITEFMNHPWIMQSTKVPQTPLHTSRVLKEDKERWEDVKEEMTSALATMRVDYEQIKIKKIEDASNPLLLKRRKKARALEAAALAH
Description: [General Procedure for Measurement of MAPKAP-K2 Enzyme Activity Inhibition]
After conducting the reaction for 30 minutes at room temperature, an equivalent volume of a 200 mM phosphoric acid solution was added to suspend the reaction, and 90 μL of the reaction product was adsorbed onto a MultiScreen PH plate (Millipore) and rinsed with a 100 mM phosphoric acid solution. After drying the plate, 30 μL of MicroScint-O (Packard BioScience) was added, and the cpm was measured with a scintillation counter to determine the inhibiting activity. Substrate peptide is […]

CDK-2 = CDK-2 (Homo sapiens, UniProt P24941); experiment: CDK-2 enzyme activity inhibition (33P-ATP filter plate kinase assay); type: biochemical
Text: [General Procedure for Measurement of CDK-2 Enzyme Activity Inhibition]

[1] = read-out: CDK-2 inhibition IC50

Compound | activity (efficacy against MAPKAP-K2) (MAPKAP-K2) | IC50 (CDK-2) [µM] | IC50 (CDK-2; [1]) [µM]
CCCC1CCNCC1Nc1nc2ccnn2c(Nc2ccc(OCC)cc2)c1C (racemic) [Compound 814, 7-N-(4-Ethoxy-phenyl)-6-methyl-5-N-(4-propyl-piperidin-3-yl)-pyrazolo[1,5-a]pyrimidine-5,7-diamine] | ++ |  | 
N#Cc1cnn2c(Nc3ccc(F)c(Cl)c3)cc(N[C@H]3CC[C@H](N)CC3)nc12 [Compound 1] | ++ | < 100 | 
N[C@H]1CC[C@H](Nc2cc(NCc3ccc(F)c(Cl)c3)n3ncc(Br)c3n2)CC1 [Compound 13] | + |  | < 100
Cc1c(NC2CCCNC2)nc2ccnn2c1Nc1ccc(F)c(Cl)c1 (stereo not shown) [Compound 152] | ++ |  | 
Cc1c(N[C@H]2CC[C@H](N)CC2)nc2ccnn2c1Nc1cccc(OCCN2CCNCC2)c1 [Compound 259, {5-[(trans-4-aminocyclohexyl)amino]-6-methyl(pyrazolo[1,5-a]pyrimidin-7-yl)}[3-(2-piperazinylethoxy)phenyl]amine] | ++ |  | 
CCOc1ccc(Nc2c(C)c(NC3CCCCNC3)nc3ccnn23)cc1 (stereo not shown) [Compound 272, [5-(azaperhydroepin-3-ylamino)-6-methyl(pyrazolo[1,5-a]pyrimidin-7-yl)](4-ethoxyphenyl)amine] | ++ |  | 
CCOc1ccc(Nc2c(C)c(NC(CO)C(C)C)nc3ccnn23)cc1 (stereo not shown) [Compound 366] |  |  | < 100
CCOc1ccc(Nc2c(C)c(NC3(CO)CCCC3)nc3ccnn23)cc1 [Compound 368] |  |  | < 100
CCOc1ccc(Nc2c(C)c(NC(C)(C)CO)nc3ccnn23)cc1 [Compound 371] |  |  | < 100
Cc1c(N[C@H]2CC[C@H](N)CC2)nc2ccnn2c1Nc1ccc(C#Cc2ccccc2)cc1 [Compound 375, {5-[(trans-4-aminocyclohexyl)amino]-6-methyl(pyrazolo[1,5-a]pyrimidin-7-yl)}[4-(2-phenylethynyl)phenyl]amine] | +++ |  | 
CCOc1ccc(Nc2c(C)c(N[C@H]3CC[C@H](N)CC3)nc3c(NC(C)=O)cnn23)cc1 [Compound 378, N-{5-[(trans-4-aminocyclohexyl)amino]-7-[(4-ethoxyphenyl)amino]-6-methyl(pyrazolo[1,5-a]pyrimidin-3-yl)}acetamide] | + |  | 
CCOc1ccc(Nc2c(C)c(N[C@H]3CC[C@H](N)CC3)nc3c(NS(C)(=O)=O)cnn23)cc1 [Compound 386, {5-[(trans-4-aminocyclohexyl)amino]-7-[(4-ethoxyphenyl)amino]-6-methyl(pyrazolo[1,5-a]pyrimidin-3-yl)}(methylsulfonyl)amine] | + |  | 
CCOc1ccc(Nc2c(C)c(N[C@H]3CC[C@H](N)CC3)nc3c(NC(=O)Nc4ccccc4)cnn23)cc1 [Compound 389, N-{5-[(trans-4-aminocyclohexyl)amino]-7-[(4-ethoxyphenyl)amino]-6-methyl(pyrazolo[1,5-a]pyrimidin-3-yl)}(phenylamino)carboxamide] | ++ |  | 
CCOc1ccc(Nc2c(C)c(N[C@H]3CC[C@H](N)CC3)nc3c(OC)cnn23)cc1 [Compound 425] |  |  | < 100
CCOc1ccc(Nc2c(C)c(N[C@H]3CC[C@H](N)CC3)nc3c(NCc4ccccc4)cnn23)cc1 [Compound 436, {5-[(trans-4-aminocyclohexyl)amino]-6-methyl-[3-benzylamino](pyrazolo[1,5-a]pyrimidin-7-yl)}(4-ethoxyphenyl)amine] | + |  | 
Cc1c(N[C@H]2CC[C@H](N)CC2)nc2ccnn2c1Nc1cccc(-c2cccnc2)c1 [Compound 450, {5-[(trans-4-aminocyclohexyl)amino]-6-methyl(pyrazolo[1,5-a]pyrimidin-7-yl)}(3-(3-pyridyl)phenyl)amine] | +++ |  | 
Cc1c(N[C@H]2CC[C@H](N)CC2)nc2ccnn2c1Nc1ccc(C(=O)N2CCCC2)cc1 [Compound 792, 4-({5-[(trans-4-aminocyclohexyl)amino]-6-methyl(pyrazolo[1,5-a]pyrimidin-7-yl)}amino)phenyl pyrrolidinyl ketone] | +++ |  | 
